Reference: patent US8236851B2, “Microspherules containing a pleuromutilin derivative” (Novartis AG, priority 2001, dated 2012)
Counter-ions that a name gives are not always drawn.

Key:
[1] = Stability of valnemulin in uncompressed feed; type: physicochemical
[2] = set-up: species or system piglets; details: in vivo, po
Method: Bioavailability studies indicate that the microspherules pass through the stomach in an intact state and release the active ingredient only in the alkaline medium of the intestine. […] After 8-10 hours, the curve then falls off again and approaches zero. In case b), with the microspherules, the increase in active ingredient concentration begins after a delay of about 1-2 hours, reaches its maximum value after about 3-4 hours and, after about 10-12 hours, falls towards zero. […] This new method makes available a form of administration that is gentle on the stomach and that makes oral therapy even more efficient.

loss of valnemulin in uncompressed feed [1]: the same losses
time after which the plasma concentration curve falls towards zero [2]: 8 to 10 h
time at which plasma active ingredient concentration reaches its maximum value [2]: 2 to 3 h
Structure (SMILES): C=C[C@]1(C)C[C@@H](OC(=O)CSC(C)(C)CNC(=O)[C@H](N)C(C)C)[C@]2(C)[C@H](C)CC[C@]3(CCC(=O)[C@H]32)[C@@H](C)[C@@H]1O [free valnemulin hydrochloride, valnemulin]
